In patent publication US11473052B2, “Bacillus subtilis subspecies” (Novozymes A/S, priority 2015, dated 2022):
Read-outs that look alike come from different tables or passages of the source.

Tests used:
[1] = test system: S. aureus ATCC 29213; experiment: MIC of antibiotics by broth micro dilution (CLSI M07-A9), control strain; details: Staphylococcus aureus
[2] = test system: B. subtilis DSM 29870; experiment: MIC of antibiotics by broth micro dilution (CLSI M07-A9); details: Bacillus subtilis

CN[C@H](CC(C)C)C(=O)N[C@H]1C(=O)N[C@@H](CC(N)=O)C(=O)N[C@H]2C(=O)N[C@H]3C(=O)N[C@H](C(=O)N[C@H](C(=O)O)c4cc(O)cc(O)c4-c4cc3ccc4O)[C@H](O)c3ccc(c(Cl)c3)Oc3cc2cc(c3O[C@@H]2O[C@H](CO)[C@@H](O)[C@H](O)[C@H]2O[C@H]2C[C@](C)(N)[C@H](O)[C@H](C)O2)Oc2ccc(cc2Cl)[C@H]1O [Vancomycin]
MIC ([1]; ATCC29213, read-out: MIC 1): 0.5 µg/mL | MIC ([1]; ATCC29213, read-out: MIC 2): 1 µg/mL | MIC ([1]; ATCC29213, read-out: MIC 3): 1 µg/mL | MIC ([2]; DSM29870, read-out: MIC 1): 0.25 µg/mL | MIC ([2]; DSM29870, read-out: MIC 2): 0.25 µg/mL | MIC ([2]; DSM29870, read-out: MIC 3): 0.25 µg/mL
